Assay results taken from patent US20260078120A1, “SUBSTITUTED PYRIDOPYRIMIDINONES” (MIRATI THERAPEUTICS, INC., priority 2022, published 2026).

Columns and labels:
[1] = system: T47D (PI3Kα H1047R mutant) cells; assay: CellTiter-Glo 2.0 luminescent cell viability assay, 72 hours, T47D cells; assay type: cell-based; conditions: Homo sapiens, T47D, 72 h, T47D (PI3Kα H1047R mutant) cells, CellTiter-Glo, approximately 72 hours; read-out: T47D (H1047R mutant) Viability IC50
Summary of the method: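 Cells seeded at 1000 per well overnight were dosed with a 10-concentration, 1:4 series starting at 10 µM and incubated ~72 h at 37° C. Viability was read by CellTiter-Glo 2.0 luminescence after 30 min at room temperature. IC50 came from four-parameter fits of percent vehicle control.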

[2] = system: SKBR3 (PI3Kα wild type) cells; assay: CellTiter-Glo 2.0 luminescent cell viability assay, 72 hours, SKBR3 cells; assay type: cell-based; conditions: Homo sapiens, SK-BR-3, 72 h, SKBR3 (PI3Kα wild type) cells, CellTiter-Glo, approximately 72 hours; read-out: SKBR3 (WT) Viability IC50
Summary of the method: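 Viability measured via CTG luminescence following roughly 72 hours of compound exposure at 37° C. Dosing used a 10 um starting concentration diluted 1:4 over 10 points; percent-of-vehicle data fitted with a variable-slope four-parameter model for IC50.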

IC50 [1] [nM] | IC50 [2] [nM] | SMILES
> 10000 | > 10000 | Cc1cc(C(C)NC2CC(C(=O)O)C2)c2nc(N3CCCCC3)cc(=O)n2c1 (stereo not shown) [Example 11-385, 3-((1-(7-methyl-4-oxo-2-(piperidin-1-yl)-4H-pyrido[1,2-a]pyrimidin-9-yl)ethyl)amino)cyclobutane-1-carboxylic acid]
> 10000 | > 10000 | Cc1cc([C@@H](C)Nc2ccncc2C(=O)O)c2nc(N3Cc4ccccc4C3)c(C#N)c(=O)n2c1 [Example 11-274, (R)-4-((1-(3-cyano-2-(isoindolin-2-yl)-7-methyl-4-oxo-4H-pyrido[1,2-a]pyrimidin-9-yl)ethyl)amino)nicotinic acid]
107 | > 10000 | Cc1cc([C@@H](C)Nc2ccccc2C(=O)O)c2nc(N3CC4CCC3C(O)C4)c(C)c(=O)n2c1 (stereo partly drawn) [Example 10-147, 2-(((1R)-1-(2-(6-hydroxy-2-azabicyclo[2.2.2]octan-2-yl)-3,7-dimethyl-4-oxo-4H-pyrido[1,2-a]pyrimidin-9-yl)ethyl)amino)benzoic acid]
590 | > 10000 | Cc1cc([C@@H](C)Nc2ccccc2C(=O)O)c2nc(NCC3CCOC3)c(C#N)c(=O)n2c1 (stereo partly drawn) [Example 11-194, 2-(((1R)-1-(3-cyano-7-methyl-4-oxo-2-(((tetrahydrofuran-3-yl)methyl)amino)-4H-pyrido[1,2-a]pyrimidin-9-yl)ethyl)amino)benzoic acid]
248 | > 10000 | Cc1cc([C@@H](C)Nc2ccccc2C(=O)O)c2nc(N3CCN(c4cnn(C)c4)CC3)c(C)c(=O)n2c1 [Example 11-265, (R)-2-((1-(3,7-dimethyl-2-(4-(1-methyl-1H-pyrazol-4-yl)piperazin-1-yl)-4-oxo-4H-pyrido[1,2-a]pyrimidin-9-yl)ethyl)amino)benzoic acid]
361 | > 10000 | Cc1cc([C@@H](C)Nc2ccccc2C(=O)O)c2nc(N3CCC[C@H](C(F)(F)F)C3)c(C#N)c(=O)n2c1 [Example 11-210, 2-(((R)-1-(3-cyano-7-methyl-4-oxo-2-((S)-3-(trifluoromethyl)piperidin-1-yl)-4H-pyrido[1,2-a]pyrimidin-9-yl)ethyl)amino)benzoic acid]
144 | 9620 | Cc1cc([C@@H](C)Nc2ccc(F)cc2C(=O)O)c2nc(N3Cc4ccccc4C3)c(C)c(=O)n2c1 [Example 11-366, (R)-5-fluoro-2-((1-(2-(isoindolin-2-yl)-3,7-dimethyl-4-oxo-4H-pyrido[1,2-a]pyrimidin-9-yl)ethyl)amino)benzoic acid]
156 | > 10000 | Cc1cc([C@@H](C)Nc2ccccc2C(=O)O)c2nc(N3Cc4nc(C)sc4C3)c(C)c(=O)n2c1 [Example 11-15, (R)-2-((1-(3,7-dimethyl-2-(2-methyl-4,6-dihydro-5H-pyrrolo[3,4-d]thiazol-5-yl)-4-oxo-4H-pyrido[1,2-a]pyrimidin-9-yl)ethyl)amino)benzoic acid]
1560 | > 10000 | Cc1cc([C@@H](C)Nc2ccccc2C(=O)O)c2nc(NCC3COC3)c(C)c(=O)n2c1 [Example 11-205, (R)-2-((1-(3,7-dimethyl-2-((oxetan-3-ylmethyl)amino)-4-oxo-4H-pyrido[1,2-a]pyrimidin-9-yl)ethyl)amino)benzoic acid]
1200 | > 10000 | Cc1cc([C@@H](C)Nc2ccccc2C(=O)O)c2nc(NC[C@H]3CCOC3)c(C#N)c(=O)n2c1 [Example 11-193, 2-(((R)-1-(3-cyano-7-methyl-4-oxo-2-((((R)-tetrahydrofuran-3-yl)methyl)amino)-4H-pyrido[1,2-a]pyrimidin-9-yl)ethyl)amino)benzoic acid]

The next lines start with the compound.

SMILES | IC50 [1] [nM] | IC50 [2] [nM]
Cc1cc([C@@H](C)Nc2ccccc2C(=O)O)c2nc(N3Cc4ncsc4C3)c(C)c(=O)n2c1 [Example 11-304, (R)-2-((1-(2-(4,6-dihydro-5H-pyrrolo[3,4-d]thiazol-5-yl)-3,7-dimethyl-4-oxo-4H-pyrido[1,2-a]pyrimidin-9-yl)ethyl)amino)benzoic acid] | 197 | > 10000
Cc1cc([C@@H](C)Nc2ccccc2C(=O)O)c2nc(N3CCC(C#N)CC3)c(C)c(=O)n2c1 [Example 11-73, (R)-2-((1-(2-(4-cyanopiperidin-1-yl)-3,7-dimethyl-4-oxo-4H-pyrido[1,2-a]pyrimidin-9-yl)ethyl)amino)benzoic acid] | 272 | > 10000
Cc1cc([C@@H](C)Nc2ccccc2C(=O)O)c2nc(O[C@@H]3CCOC3)c(C)c(=O)n2c1 [Example 11-245, 2-(((R)-1-(3,7-dimethyl-4-oxo-2-(((R)-tetrahydrofuran-3-yl)oxy)-4H-pyrido[1,2-a]pyrimidin-9-yl)ethyl)amino)benzoic acid] | 166 | > 10000
CO[C@H]1CN(c2nc3c([C@@H](C)Nc4ccccc4C(=O)O)cc(C)cn3c(=O)c2C#N)CC1(F)F [Example 11-116, 2-(((R)-1-(3-cyano-2-((S)-3,3-difluoro-4-methoxypyrrolidin-1-yl)-7-methyl-4-oxo-4H-pyrido[1,2-a]pyrimidin-9-yl)ethyl)amino)benzoic acid] | 156 | > 10000
Cc1ccc(C#N)c(N2CCN(c3nc4c([C@@H](C)Nc5ccccc5C(=O)O)cc(C)cn4c(=O)c3C)[C@@H](C)C2)c1 [Example 11-75, 2-(((R)-1-(2-((S)-4-(2-cyano-5-methylphenyl)-2-methylpiperazin-1-yl)-3,7-dimethyl-4-oxo-4H-pyrido[1,2-a]pyrimidin-9-yl)ethyl)amino)benzoic acid] | 1570 | > 10000
COc1cc2c(cc1OC)CN(c1nc3c([C@@H](C)Nc4ccccc4C(=O)O)cc(C)cn3c(=O)c1C)C2 [Example 10-139, (R)-2-((1-(2-(5,6-dimethoxyisoindolin-2-yl)-3,7-dimethyl-4-oxo-4H-pyrido[1,2-a]pyrimidin-9-yl)ethyl)amino)benzoic acid] | 74.3 | > 10000
Cc1cc([C@@H](C)Nc2ccccc2C(=O)O)c2nc(C3CCN(C)CC3)c(C)c(=O)n2c1 [Example 11-149, (R)-2-((1-(3,7-dimethyl-2-(1-methylpiperidin-4-yl)-4-oxo-4H-pyrido[1,2-a]pyrimidin-9-yl)ethyl)amino)benzoic acid] | > 10000 | > 10000
Cc1cc([C@@H](C)Nc2ccccc2C(=O)O)c2nc(N3CCN(S(C)(=O)=O)CC3)c(C#N)c(=O)n2c1 [Example 11-283, (R)-2-((1-(3-cyano-7-methyl-2-(4-(methylsulfonyl)piperazin-1-yl)-4-oxo-4H-pyrido[1,2-a]pyrimidin-9-yl)ethyl)amino)benzoic acid] | 7170 | > 10000
CC(Nc1ccccc1C(=O)O)c1cc(C(F)F)cn2c(=O)c(C#N)c(N3CCC(F)(F)CC3)nc12 (stereo not shown) [Example 11-170, 2-((1-(3-cyano-7-(difluoromethyl)-2-(4,4-difluoropiperidin-1-yl)-4-oxo-4H-pyrido[1,2-a]pyrimidin-9-yl)ethyl)amino)benzoic acid] | 166 | > 10000
Cc1cc([C@@H](C)Nc2cc(Cl)nnc2C(=O)O)c2nc(N3Cc4ccccc4C3)c(C)c(=O)n2c1 [Example 11-276, (R)-6-chloro-4-((1-(2-(isoindolin-2-yl)-3,7-dimethyl-4-oxo-4H-pyrido[1,2-a]pyrimidin-9-yl)ethyl)amino)pyridazine-3-carboxylic acid] | > 10000 | > 10000
Cc1cc([C@@H](C)Nc2ccccc2C(=O)O)c2nc(N3CCN(c4ccc(C#N)c5ccc(O)cc45)CC3)c(C)c(=O)n2c1 [Example 11-255, (R)-2-((1-(2-(4-(4-cyano-7-hydroxynaphthalen-1-yl)piperazin-1-yl)-3,7-dimethyl-4-oxo-4H-pyrido[1,2-a]pyrimidin-9-yl)ethyl)amino)benzoic acid] | 280 | > 10000
Cc1cc([C@@H](C)Nc2ccccc2C(=O)O)c2nc(N3C[C@H](F)C[C@H](F)C3)c(C#N)c(=O)n2c1 [Example 11-48, 2-(((R)-1-(3-cyano-2-((3R,5S)-3,5-difluoropiperidin-1-yl)-7-methyl-4-oxo-4H-pyrido[1,2-a]pyrimidin-9-yl)ethyl)amino)benzoic acid] | 854 | > 10000
Cc1cc([C@@H](C)Nc2ccccc2C(=O)O)c2nc(N3CCC(n4ccc(C(F)(F)F)n4)CC3)c(C)c(=O)n2c1 [Example 10-104, (R)-2-((1-(3,7-dimethyl-4-oxo-2-(4-(3-(trifluoromethyl)-1H-pyrazol-1-yl)piperidin-1-yl)-4H-pyrido[1,2-a]pyrimidin-9-yl)ethyl)amino)benzoic acid] | 87.8 | > 10000
Cc1cc([C@@H](C)Nc2ccccc2C(=O)O)c2nc(NCC3COC3)c(C#N)c(=O)n2c1 [Example 11-204, (R)-2-((1-(3-cyano-7-methyl-2-((oxetan-3-ylmethyl)amino)-4-oxo-4H-pyrido[1,2-a]pyrimidin-9-yl)ethyl)amino)benzoic acid] | 1600 | > 10000
COC1CCN(c2nc3c([C@@H](C)Nc4ccccc4C(=O)O)cc(C)cn3c(=O)c2C#N)CC1(F)F (stereo partly drawn) [Example 11-67, 2-(((1R)-1-(3-cyano-2-(3,3-difluoro-4-methoxypiperidin-1-yl)-7-methyl-4-oxo-4H-pyrido[1,2-a]pyrimidin-9-yl)ethyl)amino)benzoic acid] | 144 | > 10000
Cc1cc([C@@H](C)Nc2ccccc2C(=O)O)c2nc(N3CCN(c4cccc(C#N)c4C)CC3)c(C)c(=O)n2c1 [Example 11-438, (R)-2-((1-(2-(4-(3-cyano-2-methylphenyl)piperazin-1-yl)-3,7-dimethyl-4-oxo-4H-pyrido[1,2-a]pyrimidin-9-yl)ethyl)amino)benzoic acid] | 188 | > 10000
